According to PMC12040169 (PLOS Biology, 2025):

Experiment: in vitro
Conditions: human, hela cells, % viability

CC(C)[C@@H](CO)Nc1nc(-c2cccc3ccccc23)cnc1N [CBK063725]
viability at 28.5 h, 10 µM: 95.2%

COc1ccc(Nc2cc(-c3ccc(SC)cc3)ncn2)c(C)c1 [CBK091042]
viability at 28.5 h, 10 µM: 89.2%

Cc1oc2ccccc2c1CN(CCN(C)C)Cc1ccncc1 [CBK283097]
viability at 28.5 h, 10 µM: 87.8%

COc1ccc(CC(=O)Nc2nc(OC)cnc2/C=C\c2ccccc2)cc1 [CBK145224]
viability at 28.5 h, 10 µM: 98.7%

CCc1noc(C)c1C(=O)NCCN(C)C [CBK268118]
viability at 28.5 h, 10 µM: 97.5%

Cc1cc2c(=O)n(CC(=O)NCc3ccccn3)cnc2s1 [CBK071900]
viability at 28.5 h, 10 µM: 91.1%

O=C(CN1C(=O)COc2ccc(Cl)cc21)Nc1cccc(C(=O)O)c1 [CBK269667]
viability at 28.5 h, 10 µM: 93.1%

CCCC/C=C/c1nccnc1N[C@@H](C)c1ccccc1 [CBK037138]
viability at 28.5 h, 10 µM: 84.7%

O=C(O)C(Cc1ccccc1)N1C(=O)/C(=C/C(Cl)=C/c2ccc([N+](=O)[O-])cc2)SC1=S (centres unmarked) [CBK263523]
viability at 28.5 h, 10 µM: 95.4%

CCOC(=O)c1csc(COc2ccccc2Cl)n1 [CBK057782]
viability at 28.5 h, 10 µM: 113%

COc1cccc(C(=O)N2CCCC2c2cc3cccnc3[nH]2)c1 (centres unmarked) [CBK285082]
viability at 28.5 h, 10 µM: 96.4%

CN(Cc1cc(Br)cs1)C(=O)CCc1c[nH]c2ccccc12 [CBK298268]
viability at 28.5 h, 10 µM: 108%

Cn1ccnc1C1(O)C2CCCC1CN(CC1CCCCC1)C2 (centres unmarked) [CBK285220]
viability at 28.5 h, 10 µM: 91.5%

C=CCOc1ccccc1OCCCN1CCN(C)CC1 [CBK269714C]
viability at 28.5 h, 10 µM: 95.6%

N=C1OC2CSCC2N1C(=O)Cc1c(F)cccc1Cl (centres unmarked) [CBK284517]
viability at 28.5 h, 10 µM: 84.9%

CC(=O)C1=C(O)C(=O)N(CCCC(=O)O)C1c1ccc(Br)cc1 (centres unmarked) [CBK286784]
viability at 28.5 h, 10 µM: 115%

COc1nc(NCCN2CCOCC2)nc(Nc2ccc(Cl)cc2)n1 [CBK262541]
viability at 28.5 h, 10 µM: 102%

CC(=O)Nc1ccc(S(=O)(=O)N2CCN(C/C=C/c3ccccc3)CC2)cc1 [CBK261545]
viability at 28.5 h, 10 µM: 114%

CN1CCC(O)(Cn2cnc3cc(-c4ccc(F)cc4)sc3c2=O)CC1 [CBK307434]
viability at 28.5 h, 10 µM: 101%

O=C1c2cc(-c3nc(-c4ccccc4)[nH]c3-c3ccccc3)ccc2-c2ccc([N+](=O)[O-])cc21 [CBK262613]
viability at 28.5 h, 10 µM: 85%

Cc1ccc(C2=CCN(CC(=O)Nc3ncc(C)s3)CC2)o1 [CBK283383]
viability at 28.5 h, 10 µM: 90%

Cc1cc(OCC(O)CN2CCN(CCO)CC2)cc(C)c1Cl (centres unmarked) [CBK278248C]
viability at 28.5 h, 10 µM: 92.7%

CC(C)c1cc(C(=O)NCCN2CCc3ccccc32)n(C)n1 [CBK282685]
viability at 28.5 h, 10 µM: 86.7%

N#Cc1cc(CN2CCCN(S(=O)(=O)c3ccc(C(F)(F)F)cc3Cl)CC2)ccc1F [CBK063100]
viability at 28.5 h, 10 µM: 98.8%

Cn1nc(-c2ccc(S(=O)(=O)n3cc(C#N)c(N)n3)s2)cc1C(F)(F)F [CBK067237]
viability at 28.5 h, 10 µM: 91.2%

COc1ccc2c(c1)c(=O)oc1c(CN3CCCC3)c(O)ccc12 [CBK266814]
viability at 28.5 h, 10 µM: 95.3%

Cc1ccc(S(=O)(=O)NC(CC(=O)Nc2ccc(Br)cc2)c2ccccc2)cc1 (centres unmarked) [CBK265110]
viability at 28.5 h, 10 µM: 93.3%

Cc1onc(-c2ccccc2)c1C(=O)Nc1ccc(N2CCNCC2)c2ccccc12 [CBK038942T]
viability at 28.5 h, 10 µM: 87%

CCN(Cc1ccc(C#N)cc1F)C(=O)Nc1cc(C)nn1C [CBK305730]
viability at 28.5 h, 10 µM: 94.2%

CCN(CC)CC(=O)Nc1sc2c(c1C#N)CCCC2 [CBK261646]
viability at 28.5 h, 10 µM: 102%

Cn1nc(C(C)(C)C)cc1C(=O)N1CCNC(=O)C1Cc1ccc(-c2cccs2)cc1 (centres unmarked) [CBK285810]
viability at 28.5 h, 10 µM: 92.2%

c1cncc(-c2cc(NCCc3ccncc3)ncn2)c1 [CBK037716]
viability at 28.5 h, 10 µM: 114%

O=S(=O)(c1ccc(-c2cncc(-c3ccc(O)cc3)n2)cc1)N1CCOCC1 [CBK123786]
viability at 28.5 h, 10 µM: 84.6%

NC1(C(F)(F)F)Oc2cc(Cl)c(Cl)cc2O1 [CBK021805]
viability at 28.5 h, 10 µM: 88.5%

CC/C(=N\C(N)=O)c1ccccc1 [CBK009865]
viability at 28.5 h, 10 µM: 82.9%

Cn1c(CN2CCN(C3CCCC3)C(=O)C2)nc2ccccc21 [CBK281577]
viability at 28.5 h, 10 µM: 100%

CC(C)(C)c1cc(CNCCS(=O)(=O)O)c(O)c(C(C)(C)C)c1 [CBK261098]
viability at 28.5 h, 10 µM: 107%

Fc1ccc(-c2ccc(CNCCCN3CCOCC3)o2)cc1 [CBK278199C]
viability at 28.5 h, 10 µM: 84.5%

COc1ccc(CN2/C(=N/c3ccccc3)S[C@H]3[C@@H]2[C@@H](O)[C@H](O)C[C@@H]3C(N)=O)cc1 [CBK288941]
viability at 28.5 h, 10 µM: 102%

O=C(NC(c1ccccc1)c1ccsc1)C1CCN(S(=O)(=O)c2cccc(Cl)c2)CC1 (centres unmarked) [CBK060188]
viability at 28.5 h, 10 µM: 97.7%

CS(=O)(=O)Nc1cc2ccccc2c(-c2cccnc2)n1 [CBK085747]
viability at 28.5 h, 10 µM: 108%

CS(=O)(=O)NCC1CCCN(C(=O)Nc2cccc(Cl)c2)C1 (centres unmarked) [CBK305736]
viability at 28.5 h, 10 µM: 79.5%

CC(=O)c1ccc(S(=O)(=O)NCc2ccc(C(F)(F)F)cc2)cc1 [CBK044314]
viability at 28.5 h, 10 µM: 108%

O=C(NCCc1c[nH]cn1)N1CCN(c2ccc(F)cc2)CC1 [CBK156394]
viability at 28.5 h, 10 µM: 85.1%
